Measurements taken from patent US10035777B2, “Heterocyclic kinase inhibitors” (priority 2014, dated 2018).
pIC50: −log10 of the molar value.

Biological target: GST-Xa-hAAK1 (Homo sapiens (Human), UniProt Q2M2I8)
Assay: biochemical
Details: not given
Procedure: The assays were performed in U-bottom 384-well plates. […] The reactions were initiated by the combination of bacterially expressed, GST-Xa-hAAK1 with substrates and test compounds. The reactions were incubated at room temperature for 3 hours and terminated by adding 60 μl of 35 mM EDTA buffer to each sample. The reactions were analyzed on the Caliper LabChip 3000 (Caliper, Hopkinton, Mass.) by electrophoretic separation of the fluorescent substrate and phosphorylated product. […] Compounds were dissolved at 10 mM in dimethylsulfoxide (DMSO) and evaluated at eleven concentrations. IC50 values were derived by non-linear regression analysis.

GST-Xa-hAAK1, sequence (Q2M2I8 whole entry): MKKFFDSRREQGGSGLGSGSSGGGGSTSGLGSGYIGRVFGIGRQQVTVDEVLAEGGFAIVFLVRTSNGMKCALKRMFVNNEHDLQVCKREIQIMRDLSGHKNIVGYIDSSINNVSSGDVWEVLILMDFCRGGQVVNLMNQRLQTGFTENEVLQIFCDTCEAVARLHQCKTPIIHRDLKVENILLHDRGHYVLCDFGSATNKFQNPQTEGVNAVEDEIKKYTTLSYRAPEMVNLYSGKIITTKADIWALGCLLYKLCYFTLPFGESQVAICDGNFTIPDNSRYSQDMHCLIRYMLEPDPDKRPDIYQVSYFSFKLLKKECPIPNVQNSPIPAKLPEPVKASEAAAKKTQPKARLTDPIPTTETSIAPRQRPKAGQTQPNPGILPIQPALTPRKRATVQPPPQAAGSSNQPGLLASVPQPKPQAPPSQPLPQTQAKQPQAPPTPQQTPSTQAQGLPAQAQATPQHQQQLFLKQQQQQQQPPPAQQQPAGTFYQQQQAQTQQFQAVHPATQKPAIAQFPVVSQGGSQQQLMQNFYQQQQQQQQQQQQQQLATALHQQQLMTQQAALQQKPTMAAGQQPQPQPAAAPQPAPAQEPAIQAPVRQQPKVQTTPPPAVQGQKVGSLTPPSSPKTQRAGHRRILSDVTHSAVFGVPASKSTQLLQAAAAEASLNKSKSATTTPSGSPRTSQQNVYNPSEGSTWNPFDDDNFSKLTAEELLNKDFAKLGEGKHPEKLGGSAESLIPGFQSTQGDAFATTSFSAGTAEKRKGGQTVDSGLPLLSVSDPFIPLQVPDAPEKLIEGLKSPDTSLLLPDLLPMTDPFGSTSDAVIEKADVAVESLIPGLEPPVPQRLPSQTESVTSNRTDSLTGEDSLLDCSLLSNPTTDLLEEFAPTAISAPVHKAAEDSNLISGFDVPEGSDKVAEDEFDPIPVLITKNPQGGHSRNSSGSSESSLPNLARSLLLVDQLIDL

SMILES | pIC50
CC(C)C[C@@H](N)c1nc2cc(-c3ccnc4[nH]ccc34)ccc2[nH]1 [Example 6, (R)-1-(5-(1H-pyrrolo[2,3-b]pyridin-4-yl)-1H-benzo[d]imidazol-2-yl)-3-methylbutan-1-amine] | 8.30
COc1cc2[nH]c([C@H](N)C3CCCC3)nc2cc1-c1cnco1 [Example 68, (R)-cyclopentyl (6-methoxy-5-(oxazol-5-yl)-1H-benzo[d]imidazol-2-yl) methanamine] | 7.30
Cc1noc(C)c1-c1ccc2[nH]c([C@H](N)CC(C)C)nc2c1 [Example 78, (R)-1-(5-(3,5-dimethylisoxazol-4-yl)-1H-benzo[d]imidazol-2-yl)-3-methylbutan-1-amine] | 6.29
CC(C)OCc1nc2ccc(-c3ccncc3)cc2[nH]1 [Example 54, 2-(isopropoxymethyl)-6-(pyridin-4-yl)-1H-benzo[d]imidazole] | 6.11
CC(C)C[C@@H](N)c1nc2cc(-c3cc[nH]n3)ccc2[nH]1 [Example 3, (R)-1-(5-(1H-pyrazol-3-yl)-1H-benzo[d]imidazol-2-yl)-3-methylbutan-1-amine] | 7.25
N[C@H](CC1CC1)c1nc2cc(-c3ccncc3)ccc2[nH]1 [Example 70, (R)-2-cyclopropyl-1-(5-(pyridin-4-yl)-1H-benzo[d]imidazol-2-yl) ethanamine] | 7.21
CC(C)C[C@@H](N)c1nc2cc(-c3ccncc3)ccc2[nH]1 [Example 1, (R)-3-methyl-1-(5-(pyridin-4-yl)-1H-benzo[d]imidazol-2-yl)butan-1-amine] | 7.43
CC(C)CC(N)c1nc2ccc(-c3ccncc3)cc2s1 (stereo not shown) [Example 98, 3-methyl-1-(6-(pyridin-4-yl)benzo[d]thiazol-2-yl)butan-1-amine] | 7.36
CNC(CC(C)C)c1nc2cc(-c3ccncc3)c(OC)cc2[nH]1 (stereo not shown) [Example 73, 1-(6-methoxy-5-(pyridin-4-yl)-1H-benzo[d]imidazol-2-yl)-N,3-dimethylbutan-1-amine] | 6.74
CC(C)(C)OCc1nc2ccc(-c3ccncc3)cc2[nH]1 [Example 55, 2-(tert-butoxymethyl)-6-(pyridin-4-yl)-1H-benzo[d]imidazole] | 5.75
CC(C)C[C@@H](N)c1nc2cc(-c3cnco3)ccc2[nH]1 [Example 4, (R)-3-methyl-1-(5-(oxazol-5-yl)-1H-benzo[d]imidazol-2-yl)butan-1-amine] | 7.28
COc1cc2nc([C@H](N)CC(C)C)[nH]c2cc1-c1ccncc1 [Example 47, (R)-1-(5-methoxy-6-(pyridin-4-yl)-1H-benzo[d]imidazol-2-yl)-3-methylbutan-1-amine] | 6.31

Same assay, conditions: ATP 22 μM; GST-Xa-hAAK1 3.5 nM; room temperature for 3 hours; Caliper LabChip 3000; read-out: AAK1 IC50

SMILES | pIC50
CCn1c([C@H](N)CC(C)C)nc2ccc(-c3cn[nH]c3)cc21 [Example 34, (R)-1-(1-ethyl-6-(1H-pyrazol-4-yl)-1H-benzo[d]imidazol-2-yl)-3-methylbutan-1-amine] | 7.01
CC(C)C[C@@H](N)c1nc2ccc(-c3cnco3)cc2n1CC(F)(F)F [Example 36, (R)-3-methyl-1-(6-(oxazol-5-yl)-1-(2,2,2-trifluoroethyl)-1H-benzo[d]imidazol-2-yl)butan-1-amine] | 6.76
CC(C)CC(C)(N)c1nc2ccc(-c3cnco3)cc2[nH]1 (stereo not shown) [Example 103, 4-methyl-2-(6-(oxazol-5-yl)-1H-benzo[d]imidazol-2-yl)pentan-2-amine] | 6.80
CNC(CC(C)C)c1nc2cc(-c3cnco3)c(OC)cc2[nH]1 (stereo not shown) [Example 107, 1-(6-methoxy-5-(oxazol-5-yl)-1H-benzo[d]imidazol-2-yl)-N,3-dimethylbutan-1-amine] | 7.80
CC(C)C[C@@H](N)c1nc2cc(-c3ccncc3)c(F)cc2[nH]1 [Example 30, (R)-1-(6-fluoro-5-(pyridin-4-yl)-1H-benzo[d]imidazol-2-yl)-3-methylbutan-1-amine] | 7.06
COCCn1c([C@H](N)CC(C)C)nc2ccc(-c3cnco3)cc21 [Example 39, (R)-1-(1-(2-methoxyethyl)-6-(oxazol-5-yl)-1H-benzo[d]imidazol-2-yl)-3-methylbutan-1-amine] | 5.17
COc1cc2[nH]c(C(C)(N)CC(C)C)nc2cc1-c1cnco1 (stereo not shown) [Example 108, 2-(6-methoxy-5-(oxazol-5-yl)-1H-benzo[d]imidazol-2-yl)-4-methylpentan-2-amine] | 7.22
CC(C)C[C@@H](N)c1nc2cc(-c3ccnc(N)n3)ccc2[nH]1 [Example 16, (R)-4-(2-(1-amino-3-methylbutyl)-1H-benzo[d]imidazol-5-yl)pyrimidin-2-amine] | 6.69
COc1cc(-c2cnco2)cc2[nH]c(CCC(C)C)nc12 [Example 26, 5-(2-isopentyl-4-methoxy-1H-benzo[d]imidazol-6-yl)oxazole] | 6.66
CC(C)C[C@H](N)c1nc2ccc(-c3ccncc3)cc2[nH]1 [Example 2, (S)-3-methyl-1-(6-(pyridin-4-yl)-1H-benzo[d]imidazol-2-yl)butan-1-amine] | 7.28
CC(C)CC(N)c1nc2cc(-c3ccncc3)ccc2o1 (stereo not shown) [Example 83, 3-methyl-1-(5-(pyridin-4-yl)benzo[d]oxazol-2-yl)butan-1-amine] | 7.15
CCn1c([C@H](N)CC(C)C)nc2cc(-c3ccncc3)ccc21 [Example 45, (R)-1-(1-ethyl-5-(pyridin-4-yl)-1H-benzo[d]imidazol-2-yl)-3-methylbutan-1-amine] | 6.13
CC(C)CC(CN)c1nc2cc(-c3cnco3)ccc2[nH]1 (stereo not shown) [Example 65, 4-methyl-2-(5-(oxazol-5-yl)-1H-benzo[d]imidazol-2-yl)pentan-1-amine] | 7.59
CC(C)C[C@@H](N)c1nc2cc(-c3ccncc3F)ccc2[nH]1 [Example 10, (R)-1-(5-(3-fluoropyridin-4-yl)-1H-benzo[d]imidazol-2-yl)-3-methylbutan-1-amine] | 7.36
Cc1n[nH]c(C)c1-c1ccc2[nH]c([C@H](N)CC(C)C)nc2c1 [Example 19, (R)-1-(5-(3,5-dimethyl-1H-pyrazol-4-yl)-1H-benzo[d]imidazol-2-yl)-3-methylbutan-1-amine] | 7.39
CC(C)C[C@@H](N)c1nc2ccc(-c3ccncc3)cc2n1CCO [Example 40, (R)-2-(2-(1-amino-3-methylbutyl)-6-(pyridin-4-yl)-1H-benzo[d]imidazol-1-yl)ethanol] | 6.57
COc1cc(-c2cnco2)cc2nc([C@H](N)CC(C)C)[nH]c12 [Example 21, (R)-1-(7-methoxy-5-(oxazol-5-yl)-1H-benzo[d]imidazol-2-yl)-3-methylbutan-1-amine] | 7.48
COc1cc2[nH]c([C@H](N)C3CCCCC3)nc2cc1-c1cnco1 [Example 64, (R)-cyclohexyl(6-methoxy-5-(oxazol-5-yl)-1H-benzo[d]imidazol-2-yl)methanamine] | 7.80
COc1cc(-c2ccncc2)cc2[nH]c(CCC(C)C)nc12 [Example 25, 2-isopentyl-4-methoxy-6-(pyridin-4-yl)-1H-benzo[d]imidazole] | 6.42
COCCn1c([C@H](N)CC(C)C)nc2ccc(-c3ccncc3)cc21 [Example 38, (R)-1-(1-(2-methoxyethyl)-6-(pyridin-4-yl)-1H-benzo[d]imidazol-2-yl)-3-methylbutan-1-amine] | 6.27
COc1cnccc1-c1ccc2[nH]c([C@H](N)CC(C)C)nc2c1 [Example 11, (R)-1-(5-(3-methoxypyridin-4-yl)-1H-benzo[d]imidazol-2-yl)-3-methylbutan-1-amine] | 7.03
COc1cnccc1-c1ccc2[nH]c(CCC(C)C)nc2c1 [Example 56, 2-isopentyl-5-(3-methoxypyridin-4-yl)-1H-benzo[d]imidazole] | 6.21
CNc1cc(-c2ccc3[nH]c([C@@H](CC(C)C)NC)nc3c2)ccn1 [Example 61, (R)-N-methyl-4-(2-(3-methyl-1-(methylamino)butyl)-1H-benzo[d]imidazol-5-yl) pyridin-2-amine] | 8.10
CC(C)C[C@@H](N)c1nc2cc(-c3ccnc4ccccc34)ccc2[nH]1 [Example 9, (R)-3-methyl-1-(5-(quinolin-4-yl)-1H-benzo[d]imidazol-2-yl)butan-1-amine] | 7.89
c1cc(-c2ccc3oc(CCC4CCCC4)nc3c2)ccn1 [Example 92, 2-(2-cyclopentylethyl)-5-(pyridin-4-yl)benzo[d]oxazole] | 5.77
COc1cnccc1-c1ccc2nc([C@H](N)CC(C)C)n(CC(F)(F)F)c2c1 [Example 35, (R)-1-(6-(3-methoxypyridin-4-yl)-1-(2,2,2-trifluoroethyl)-1H-benzo[d]imidazol-2-yl)-3-methylbutan-1-amine] | 7.60
CC1CC1c1nc2ccc(-c3ccncc3)cc2[nH]1 (stereo not shown) [Example 48, 2-(2-methylcyclopropyl)-6-(pyridin-4-yl)-1H-benzo[d]imidazole] | 6.05
CC(C)C[C@@H](N)c1nc2ccc(-c3ccncc3)cc2n1C [Example 42, (R)-3-methyl-1-(1-methyl-6-(pyridin-4-yl)-1H-benzo[d]imidazol-2-yl)butan-1-amine] | 6.80

Same assay, conditions: read-out: AAK1 IC50

SMILES | pIC50
COc1cc(-c2cc3nc([C@H](N)CC(C)C)[nH]c3cc2OC)ccn1 [Example 28, (R)-1-(6-methoxy-5-(2-methoxypyridin-4-yl)-1H-benzo[d]imidazol-2-yl)-3-methylbutan-1-amine] | 5.70
CC(C)C[C@@H](NCC(F)(F)F)c1nc2cc(-c3ccncc3)ccc2[nH]1 [Example 66, 3-methyl-1-(5-(pyridin-4-yl)-1H-benzo[d]imidazol-2-yl)-N-(2,2,2-trifluoroethyl)butan-1-amine] | 7.35
COc1cnccc1-c1cc2nc([C@H](N)CC(C)C)[nH]c2cc1OC [Example 27, (R)-1-(6-methoxy-5-(3-methoxypyridin-4-yl)-1H-benzo[d]imidazol-2-yl)-3-methylbutan-1-amine] | 5.70
